Assay results: patent US20230346878A1, “Treatment of Abdominal Pain Associated with Diarrhea-Predominant Irritable Bowel Syndrome” (Ironwood Pharmaceuticals, Inc., priority 2019, published 2023)
Where a SMILES comes first, the peptide text is derived from it. Bridges are numbered along the chain shown (N, C = ends).

Assay: Phase 1 study of linaclotide DR2: PK in plasma and inspection of stool for intact tablets
Format: in vivo, human
Protocol: Delayed release “DR2” linaclotide tablets were administered in a double-blind, placebo-controlled Phase 1 study randomized healthy adult volunteers at dosing levels of 300 μg, 1200 μg, and 3000 μg or placebo for 7 days. Safety and tolerability were assessed at each dose and prior to escalation to the highest dose. Gastrointestinal pharmacodynamics (“PD”) assessments included change from baseline (CFB) in bowel movement frequency (Spontaneous bowel movement [SBM]/week) and stool consistency (Bristol stool form scale [BSFS]). To confirm release of linaclotide, all of the subject's stools were inspected for intact DR2 tablets.
PK assessments were conduct through blood determination of linaclotide and its metabolite in plasma, and feces for the determination of linaclotide and its metabolite in stool, were collected from all dosed subjects during the Clinic Period.

Question: For `C[C@@H]1NC(=O)[C@@H]2CCCN2C(=O)[C@H](CC(N)=O)NC(=O)[C@@H]2CSSC[C@H](N)C(=O)N[C@H]3CSSC[C@H](NC1=O)C(=O)N[C@@H]([C@@H](C)O)C(=O)NCC(=O)N[C@H](C(=O)N[C@@H](Cc1ccc(O)cc1)C(=O)O)CSSC[C@H](NC(=O)[C@H](Cc1ccc(O)cc1)NC(=O)[C@H](CCC(=O)O)NC3=O)C(=O)N2` [Linaclotide, linaclotide] (H-CCEYCCNPACTGCY-OH; disulfide 1-6, 2-10, 5-13 (inferred)), which “systemic absorption / exposure” value (DR2 tablets orally for 7 days) is on record?
Answer: minimally absorbed with negligible systemic exposure

Question: What about the detection in plasma (following 7 days of oral administration of DR2) of the same molecule?
Answer: Neither linaclotide nor its active metabolite were detected
